Experimental data as given in PubChem BioAssay (NCI).
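These data come from cells grown in 96-well plates and exposed to compound for 48 hours at five concentrations. TGI denotes the concentration required for complete inhibition of growth.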

Experiments:
Test in all cases: inhibition of tumour cell growth, NCI panel, 48 h
786-0 renal = tested on: 786-0 renal
A498 renal = tested on: A498 renal
CAKI-1 renal = tested on: CAKI-1 renal
EKVX NSCLC = tested on: EKVX NSCLC
HT29 colon = tested on: HT29 colon
IGROV1 ovarian = tested on: IGROV1 ovarian
LOX IMVI melanoma = tested on: LOX IMVI melanoma
M14 melanoma = tested on: M14 melanoma
MCF7 breast = tested on: MCF7 breast
MOLT-4 leukemia = tested on: MOLT-4 leukemia
NCI-H460 lung = tested on: NCI-H460 lung
NCI-H522 lung = tested on: NCI-H522 lung
OVCAR-4 ovarian = tested on: OVCAR-4 ovarian
SF-268 CNS = tested on: SF-268 CNS
SF-295 CNS = tested on: SF-295 CNS
SF-539 CNS = tested on: SF-539 CNS
SN12C renal = tested on: SN12C renal
SW-620 colon = tested on: SW-620 colon
UACC-62 melanoma = tested on: UACC-62 melanoma

Row | SMILES | TGI (786-0 renal) [µM] | TGI (A498 renal) [µM] | TGI (CAKI-1 renal) [µM] | TGI (EKVX NSCLC) [µM] | TGI (HT29 colon) [µM] | TGI (IGROV1 ovarian) [µM] | TGI (LOX IMVI melanoma) [µM] | TGI (M14 melanoma) [µM] | TGI (MCF7 breast) [µM] | TGI (MOLT-4 leukemia) [µM] | TGI (NCI-H460 lung) [µM] | TGI (NCI-H522 lung) [µM] | TGI (OVCAR-4 ovarian) [µM] | TGI (SF-268 CNS) [µM] | TGI (SF-295 CNS) [µM] | TGI (SF-539 CNS) [µM] | TGI (SN12C renal) [µM] | TGI (SW-620 colon) [µM] | TGI (UACC-62 melanoma) [µM]
1 | COc1ccc(NC(=O)C(=O)Cc2nc3ccc(C(=O)c4ccccc4)cc3[nH]c2=O)c([N+](=O)[O-])c1 | > 100 | 54.8 | > 100 | > 100 | 35.9 | 60.7 | > 100 | > 100 | > 100 | 40.1 | > 100 | 51.4 | > 100 | > 100 | > 100 | > 100 | > 100 | 79.8 | 78.5
2 | O=c1n(-c2ccccc2)c(=O)n2c(-c3ccccc3)c(-c3ccccc3)n12 | > 100 | > 100 | > 100 | > 100 | > 100 | > 100 | > 100 | > 100 | > 100 | > 100 | > 100 |  | > 100 |  | > 100 | > 100 | > 100 | > 100 | > 100
3 | C=C1C2CCC3(CCC4C5(C)CCCC4(C=[N+](CCO)C5)C3C2)C1O (stereo not given) | > 100 | > 100 | > 100 | > 100 | > 100 | > 100 | > 100 | > 100 | > 100 |  | > 100 | > 100 | > 100 | > 100 | > 100 | > 100 | > 100 | > 100 | > 100
4 | Nc1[nH]c(=O)[nH]c(=O)c1Cc1cccc(Cl)c1 | > 100 | > 100 | > 100 | > 100 | > 100 | > 100 | > 100 | > 100 | 48.8 |  | > 100 | > 100 | > 100 | > 100 | > 100 | > 100 | > 100 | > 100 | > 100
5 | c1ccc(COC2C3COC(O3)C(OCc3ccccc3)C2OCc2ccccc2)cc1 (stereo not given) | > 100 | > 100 | > 100 | > 100 |  | > 100 | > 100 | > 100 | > 100 | 56.5 | > 100 | 62.6 | > 100 | > 100 | > 100 | > 100 | 41.7 | > 100 | > 100
6 | COc1ccc(NC/C=C/C(=C/COC(C)=O)OC(C)=O)cc1 | 2.44 | 3.53 | 4.18 | 4.99 |  | 3.56 | 4.79 | 3.19 | > 100 | > 100 | 4.8 | 4.78 | 3.26 | 6.52 | 4.97 | 3.8 |  | 3.49 | 14.5
7 | c1ccc2c(-c3csc(-c4c[nH]c5ccccc45)n3)c[nH]c2c1 | > 100 | > 100 | > 100 | > 100 | > 83.6 | > 100 | > 100 | > 100 | > 100 | 41.4 | > 100 |  | > 100 | > 100 | > 89.1 | > 100 | > 100 | > 100 | > 100
8 | CSc1nc2c3ccccc3ccn2c1C(=O)N/N=C/c1ccccc1 | 42.3 | > 100 | > 40 | > 100 | > 100 | > 100 | > 100 | > 100 | > 100 | > 100 | > 73.7 | > 100 | 39.1 | > 72.1 | > 72.4 | 9.53 | > 100 | > 100 | > 100
9 | c1n[nH]cc1C12C3C4C5C3C1C5C42 (stereo not given) | > 100 | > 100 | > 100 | > 100 | > 100 | > 100 | > 100 | > 100 | > 100 | > 100 |  | > 100 | > 100 | > 100 | > 100 | > 100 | > 100 | > 100 | > 100
10 | O=C(NCCCCCCCN1CCCCCCC1)C(C1CCCCC1)C1CCCCC1 | 12.6 | 15.5 | 20.6 | 18.9 | 11.7 | 27.3 | 26.2 | 3.97 | 19.8 | 20.4 | 23.6 | 30.9 | 25.4 | 32.5 | 24.6 | 24.6 | 26.9 | 56.1 | 10.1
11 | O=C(Nc1ccc2[nH]c(C(=O)N3CC(CCl)c4ccc([N+](=O)[O-])cc43)cc2c1)c1cc2ccccc2o1 (stereo not given) | > 1100 | > 1100 | > 1100 | > 1100 | > 1100 | > 1100 | > 1100 | > 1100 | > 1100 | > 1100 | > 1100 | > 1100 | > 1100 | > 1100 | > 1100 | > 1100 | > 1100 | > 1100 | > 1100
12 | CSc1c(C#N)c(S)n(-c2ccc(Cl)cc2)c(=O)c1C#N | > 100 | > 100 | > 100 | > 100 | > 100 | > 100 | > 100 | > 100 | > 100 | > 100 | > 100 | > 100 | > 100 | > 100 |  | > 100 | > 100 | > 100 | > 100
13 | NC(=O)c1sc2nc3ccccc3n2c1N | > 100 | > 100 | > 100 | > 100 | > 100 | > 100 | > 100 | > 100 | > 100 | > 100 |  |  | > 100 | > 100 | 50.8 | 45.9 |  | > 100 | > 100
14 | CNC(=O)N1N[C@H](c2ccccc2)[C@@H]1c1ccccc1 | > 100 | 55.4 | > 100 | 85.6 | 32.3 | 56.4 | 44.3 | 56.1 | 62.5 | 71.1 | 53.4 |  | > 100 |  | 41.2 | 33.3 | 62.7 | 77.7 | 26.8
15 | COc1ccccc1C1c2cc3c(cc2OC(N2CCCC2)C1C)OCO3 (stereo not given) | 35.3 | 30.3 | 31.4 | 50.6 | 39.5 | 51.5 | 38.1 | 30.1 | 39.4 |  | 40.9 | 42.1 | 70.5 | 30.9 | 39.3 | 31.7 | 39.7 | 44.7 | 38.4
16 | COc1ccc(C(=O)Oc2c(C#N)sc3c2c(=O)n(-c2ccccc2)c(=S)n3-c2ccccc2)cc1 | > 100 | 41.4 | 68.9 | 31.3 | 62 | 44.4 | 46.2 | 44.8 | 80.4 | 46.5 | > 100 | 4.11 | 79 | > 100 | > 100 | 49.3 | 68.2 | > 100 | 24.5
17 | N#Cc1c(-c2ccccc2)cc(-c2ccccc2)n(C2OCC(O)C(O)C2O)c1=S (stereo not given) | 49.1 | 64.2 | 61.5 | 90.2 | 80 | 33.5 | 31.9 | 53.3 | 41.7 | > 100 | 70.6 | 37.9 | 70.6 | 80 | 39 | 41.9 |  | 33.5 | 16.1
18 | O=C(O)CC12CC3CC(CC(O)(C3)C1)C2 | > 100 | > 100 | > 100 | > 100 | > 100 | > 100 | > 100 | > 100 | > 100 |  | > 100 | 59.4 | > 100 | 82.7 | > 100 | > 100 | > 100 | > 100 | > 100
19 | c1ccc(C2=C(c3ccccc3)Sc3nnc(CCCCCCCCc4nnc5n4NC(c4ccccc4)=C(c4ccccc4)S5)n3N2)cc1 | > 100 | > 100 | > 100 | > 100 | > 100 |  | > 100 | > 100 | > 100 | 49.9 | > 100 | > 100 | > 100 | > 100 | > 100 | > 100 | > 100 | > 100 | > 100
20 | CC(=O)O[C@@H]1[C@H]2[C@@H](OC(=O)c3ccccc3)[C@@H](C)C[C@]2(O)[C@H](OC(C)=O)[C@@]2(C)[C@@H]3C[C@@](C)(OC(C)=O)C[C@@H](OC(C)=O)[C@@]3(OC(C)=O)C[C@@]12C | > 10 | > 10 | > 10 | > 10 |  | > 10 | > 10 | > 10 | > 10 | > 10 | > 10 | > 10 | > 10 | > 10 | > 10 | > 10 | > 10 | > 10 | > 10
